Entries after “also recorded” stand apart in the source; their conditions may differ.
Legend:
COI1 = target: T1, COI1 (Arabidopsis thaliana, UniProt O04197); experiment: Ligand binding assay with synthetic JAZ peptides replacing recombinant JAZ1 (coronatine binding to COI1/ASK1); conditions: 300 nM coronatine
T1 construct: Full-length Arabidopsis thaliana COI1 and ASK1 were co-expressed; GST (cleaved yes); made in house; host or cells: Hi5 insect cells (COI1/ASK1); JAZ peptides synthetic
T1 sequence (O04197 1-592): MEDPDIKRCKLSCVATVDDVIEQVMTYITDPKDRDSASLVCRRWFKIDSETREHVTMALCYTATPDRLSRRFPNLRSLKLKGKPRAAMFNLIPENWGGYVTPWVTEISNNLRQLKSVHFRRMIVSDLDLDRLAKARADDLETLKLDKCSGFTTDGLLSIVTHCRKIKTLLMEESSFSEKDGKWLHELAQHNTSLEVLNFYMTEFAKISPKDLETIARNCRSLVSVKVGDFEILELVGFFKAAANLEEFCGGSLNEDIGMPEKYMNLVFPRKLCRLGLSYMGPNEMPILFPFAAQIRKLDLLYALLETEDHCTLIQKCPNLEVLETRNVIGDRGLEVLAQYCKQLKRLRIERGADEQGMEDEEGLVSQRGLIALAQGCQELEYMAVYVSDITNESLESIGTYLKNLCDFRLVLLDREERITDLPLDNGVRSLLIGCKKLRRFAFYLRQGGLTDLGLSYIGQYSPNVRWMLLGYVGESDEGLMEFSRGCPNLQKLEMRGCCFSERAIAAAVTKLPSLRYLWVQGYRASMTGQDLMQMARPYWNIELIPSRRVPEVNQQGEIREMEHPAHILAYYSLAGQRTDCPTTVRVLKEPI
T1 sequence (Q39255 1-160 partner): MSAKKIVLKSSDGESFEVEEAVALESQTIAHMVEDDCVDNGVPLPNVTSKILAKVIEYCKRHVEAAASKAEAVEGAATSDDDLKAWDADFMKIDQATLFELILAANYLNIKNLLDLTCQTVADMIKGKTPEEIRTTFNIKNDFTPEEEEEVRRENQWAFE
Experimental: (§1) Radioligand binding was assayed on purified proteins, with 2 mg COI1/ASK1 complex and JAZ proteins at a 1:3 molar ratio. Reactions were prepared in […] final volume and in a binding buffer containing 20 mM Tris-HCl 200 mM NaCl, and 10% glycerol. Saturation binding experiments were conducted with serial dilutions of 3H-coronatine in binding buffer. Nonspecific binding was determined in the presence of […] coronatine. Competition binding experiments were conducted with serial dilutions of JA-Ile in the presence of 100 nM ^3H coronatine with nonspecific binding determined in the presence of […] coronatine. Total binding was determined in the presence of vehicle only. Two-point binding experiments were performed in the presence of 100 nM or 300 nM ^3H-coronatine with nonspecific binding determined in the presence of […] coronatine. Following incubation with mixing at 4° C., all samples were collected with a cell harvester (Brandel, Gaithersburg, Md.) on polyethyleneimine (Sigma)-treated filters. Samples were incubated in liquid scintillation fluid for >1 hour before counting with a Packard Tri-Carb 2200 CA liquid scintillation analyzer (Packard Instrument Co.). Saturation binding experiments were analyzed by nonlinear regression, competition binding experiments by nonlinear regression with Ki calculation as described previously (Cheng 1973), and concentration-response data by sigmoidal dose-response curve fitting, all using GraphPad Prism version 4.00 for MacOSX.
Previous studies have shown that the highly conserved PY sequence at the C-terminal end of the Jas motif plays a role in JAZ localization and stability in vivo, but that the sequence was not necessary for ligand-dependent COI1-JAZ interaction. This was confirmed by an experiment showing that truncation of the PY motif in JAZ1 had little effect on in vitro ligand binding activity (FIG. 3). […]
Various derivatives of the JAZ1 degron sequence, as well as derivatives of the JAZ6 and JAZ7 degron sequences, were analyzed for their ability to bind COI1 with high affinity in the presence of coronatine.

COI1/JAZ1 co-receptor [1] = target: T2, COI1/JAZ1 co-receptor (Arabidopsis thaliana, UniProt O04197+Q9LMA8); experiment: Ligand-binding based reconstitution assay (inositol phosphate rescue) with dialyzed COI1/ASK1 and JAZ1; conditions: for Effect of inositol phosphate on activity of the COI1/JAZ1 co-receptor (coronatine binding): dialyzed COI1, JAZ1, 1 μM inositol phosphate
T2 construct: Full-length Arabidopsis thaliana COI1 and ASK1 were co-expressed; Full-length JAZ substrate proteins were expressed as 6×His-fusion proteins in Escherichia coli; GST (cleaved yes); 6xHis; made in house; host or cells: Hi5 insect cells (COI1/ASK1); Escherichia coli (JAZ1)
T2 sequence (O04197 1-592): T1 sequence (O04197 1-592)
T2 sequence (Q39255 1-160 partner): T1 sequence (Q39255 1-160 partner)
T2 sequence (Q9LMA8 1-253): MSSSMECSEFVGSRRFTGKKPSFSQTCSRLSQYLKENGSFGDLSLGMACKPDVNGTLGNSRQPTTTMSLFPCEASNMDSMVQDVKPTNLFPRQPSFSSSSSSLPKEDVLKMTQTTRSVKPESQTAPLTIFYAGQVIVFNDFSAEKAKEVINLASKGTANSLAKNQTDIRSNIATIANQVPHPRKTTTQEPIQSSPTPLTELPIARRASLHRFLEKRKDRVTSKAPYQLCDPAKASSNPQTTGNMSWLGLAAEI
Experimental: as §1
To assess the functional role of Ins(1,2,4,5,6)P5 in the COI1/JAZ1 co-receptor, a protocol was developed for stripping the co-purified InsP5 from COI1 without denaturing the protein. Briefly, proteins were mixed with 10% glycerol and incubated in 2 M ammonium phosphate, 100 mM Bis-Tris propane, pH 7.0, 200 mM NaCl, and 10% glycerol at 4° C. for >24 hours with a minimum of 3× buffer changes at 100× sample volume. Samples were then transferred to 20 mM Tris-HCl, pH 8.0, 200 mM NaCl, and 10% glycerol at 4° C. for >24 hours with a minimum of three buffer changes at 100× sample volume. Inositol phosphate rescue experiments were conducted according to the radioligand binding assays described above in the presence of 300 nM ^3H-coronatine with nonspecific binding determined in the presence of 300 μM coronatine.
The resulting COI1/ASK1 complex was tested in a ligand-binding based reconstitution assay. […] From this reconstitution result, it was concluded that Ins(1,2,4,5,6)P5 binding is crucial for the jasmonate coreceptor to perceive the hormone with high sensitivity.

COI1-JAZ6 complex = target: T3, COI1-JAZ6 complex (Arabidopsis thaliana, UniProt O04197+Q9C9E3); experiment: Competition binding with 100 nM 3H-coronatine; conditions: 100 nM 3H-COR, COI1-JAZ6 complex; read-out: Inhibition constant (Ki), competition with 3H-coronatine
T3 construct: Full-length Arabidopsis thaliana COI1 and ASK1 were co-expressed; Full-length JAZ substrate proteins were expressed as 6×His-fusion proteins in Escherichia coli; GST (cleaved yes); 6xHis; made in house; host or cells: Hi5 insect cells (COI1/ASK1); Escherichia coli (JAZ6)
T3 sequence (O04197 1-592): T1 sequence (O04197 1-592)
T3 sequence (Q39255 1-160 partner): T1 sequence (Q39255 1-160 partner)
T3 sequence (Q9C9E3 1-269): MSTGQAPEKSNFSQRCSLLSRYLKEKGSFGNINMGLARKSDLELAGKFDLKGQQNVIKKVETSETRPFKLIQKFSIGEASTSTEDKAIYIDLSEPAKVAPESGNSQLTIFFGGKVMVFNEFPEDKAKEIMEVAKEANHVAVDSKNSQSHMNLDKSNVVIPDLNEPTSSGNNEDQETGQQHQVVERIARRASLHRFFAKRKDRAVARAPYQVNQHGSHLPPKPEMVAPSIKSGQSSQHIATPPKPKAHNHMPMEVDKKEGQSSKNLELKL
From the text: (^3H)-labeled coronatine was synthesized by Amersham. Full-length Arabidopsis thaliana COI1 and ASK1 were co-expressed as a glutathione S-transferase (GST) fusion protein and an untagged protein, respectively, in Hi5 suspension insect cells. The COI1/ASK1 complex was isolated from the soluble cell lysate by glutathione affinity chromatography. After on-column tag cleavage by tobacco etch virus protease, the complex was further purified by anion exchange and gel filtration chromatography and concentrated by ultrafiltration to 12-18 mg ml^−1. Full-length JAZ substrate proteins were expressed as 6×His-fusion proteins in Escherichia coli and purified on Ni-NTA resin with subsequent dialysis into 20 mM Tris-HCl, pH 8.0, 200 mM NaCl, and 10% glycerol.
as §1, with “Samples were incubated in liquid scintillation fluid for >1 hour before counting with a Packard Tri-Carb 2200 CA liquid scintillation analyzer (Packard Instrument Co.).” left out

COI1/JAZ1 co-receptor [2] = target: T2, COI1/JAZ1 co-receptor; experiment: Ligand-binding based reconstitution assay (inositol phosphate rescue) with dialyzed COI1/ASK1 and JAZ1; conditions: 100 nM 3H-coronatine, read-out: EC50, rescue of 3H-coronatine binding to dialyzed COI1/ASK1 in the presence of JAZ1

Molecule	Binding of peptide to COI1 in the presence of coronatine (COI1)	Effect of inositol phosphate on activity of the COI1/JAZ1 co-receptor (coronatine binding) (COI1/JAZ1 co-receptor [1])	also measured
JAZ1 degron: RRASLHRFLEKRKDRVTSKAPY (R205-Y226 of JAZ1) (listed as Arabidopsis thaliana)	did not bind to COI1 with high affinity		
O=P(O)(O)O[C@@H]1[C@H](O)[C@H](O)[C@@H](OP(=O)(O)O)[C@H](OP(=O)(O)O)[C@H]1O [inositol-1,4,5-trisphosphate]		does not	
CC/C=C\C[C@@H]1C(=O)CC[C@@H]1CC(=O)N[C@H](C(=O)O)[C@@H](C)CC [(3R,7S)-JA-Ile, (3R,7S)-jasmonyl-L-isoleucine]			Ki (COI1-JAZ6 complex): 1800 ± 600 nM
O=P(O)(O)OC1C(O)C(OP(=O)(O)O)C(OP(=O)(O)O)C(OP(=O)(O)O)C1OP(=O)(O)O (stereo not drawn) [Ins(1,2,4,5,6)P5, inositol-1,2,4,5,6-pentakisphosphate]		rescued the interaction in a dose-dependent manner	Effect of inositol phosphate on activity of the COI1/JAZ1 co-receptor (coronatine binding) (COI1/JAZ1 co-receptor [1]; listed as InsP5): rescues binding; Effect of exogenous inositol phosphate on untreated COI1/JAZ1 co-receptor activity (COI1/JAZ1 co-receptor [1]; untreated (not dialyzed) COI1, JAZ1, 1 μM): did not significantly change its activity; EC50 (COI1/JAZ1 co-receptor [2]): 27 nM
CCC=CC[C@H]1C(=O)CC[C@@H]1CC(=O)N[C@H](C(=O)O)[C@@H](C)CC [(3R,7R)-JA-Ile]			Ki (COI1-JAZ6 complex): 18000 ± 19000 nM
O=P(O)(O)O[C@H]1[C@H](OP(=O)(O)O)[C@@H](OP(=O)(O)O)[C@@H](O)[C@@H](O)[C@@H]1OP(=O)(O)O [inositol-1,4,5,6-tetrakisphosphate]		supports the activity	
O=P(O)(O)OC1C(OP(=O)(O)O)C(OP(=O)(O)O)C(OP(=O)(O)O)C(OP(=O)(O)O)C1OP(=O)(O)O (stereo not drawn) [InsP6, inositol hexakisphosphate]		not favorable for activity; also recorded: significantly less efficacious	
JAZ1-extension +5+PY: ELPIARRASLHRFLEKRKDRVTSKAPY (listed as Arabidopsis thaliana)	significant binding		
JAZ1 +4 extension: LPIARRASLHRFLEKRKDRV (listed as Arabidopsis thaliana)	much higher affinity		
